# Columns and labels:
# Assay in all cases: method of reducing viral plates (plaque reduction)
# [1] = system: HSV-1 TK^− B2006; type: cell-based; settings: for IC50: Human alphaherpesvirus 1; for Relative resistance (RR): IC50 of HSV-1 TK^− B2006 / IC50 of HSV-1 (F)
# Method: (§1) According to the present invention, a method of reducing the viral plates comprises the following process: Vero cells monolayers developed in 24 wells microplates are infected with 50 UFP/well of virus in the absence or presence of different compounds concentrations. Each dilution is tested by duplicate. After 1 hour adsorption at 37° C., the inoculum is removed and covered by plating medium (culture media with methylcellulose at a final concentration of 0.7%). Inoculation is continued till the viral plates' appearance, which are then counted after fitting and dying the cells with violet crystal. Moreover, according to the present invention, 50% inhibitory concentration (IC50) means the compound concentration required for reducing about 50% the number of viral plates.
# (§2) Thus, preliminary tests of the cloned variants of passages with greater selection pressure of 1C3 (17, 20 and 21) with pyrimidine and purine analogous as aciclovir (ACV) and brivudin (BVDU) would disclose alterations at viral TK level as it is shown in Table VIII, a characteristic that, up to date, has not been published in previous art documents. The TK gene is not essential for the in vitro viral replication, though in vivo, is involved in the virulence, pathogenicity and reactivation since latency (Andrei G et al., 2005). […] Therefore, the selection pressure to which the viruses were subjected could have selected mutations in the TK gene and in additional superimposing genes generating strains with less in vivo pathogenic action (Jacobson J et al., 1993).
# [2] = system: 1C3-syn-14-1; type: cell-based, HSV-1; settings: for IC50: Human alphaherpesvirus 1, strain 1C3 syn 14-1, read-out: IC50; for IC50 / Relative resistance (RR): Table VIII; for Relative resistance (RR): IC50 of clone 1C3 syn 14-1 / IC50 of HSV-1 (F)
# Method: as §1
# (§3) Compounds were present during the viral adsorption (1h, 37° C.) and after the infection. When a cytopathic action (ACP) between 80-90%, during a period among 24 to 72 hours p.i., was observed, cells were lysed with freeze-thawing cycles. In order to remove cellular moieties, the cellular lisate was centrifuged during 10 min at 1000 rpm, keeping the supernatant at −70° C. The supernatant was used to infect a new monolayer in the presence of SAMMA or PRO2000. […] The title and the IC50 of each viral passage was determined by viral plates reduction test (or after 2-3 passages) against SAMMA or PRO20000.
# [3] = system: HSV-1 (F); type: cell-based; settings: Human alphaherpesvirus 1; Table VIII; strain HSV-1 (F); read-out: IC50
# Method: as §1, §3
# [4] = system: 1C3 syn 20-2; type: cell-based, HSV-1; settings: for IC50: Human alphaherpesvirus 1; for Relative resistance (RR): IC50 of clone 1C3 syn 20-2 / IC50 of HSV-1 (F)
# Method: as §1, §2
# [5] = system: 1C3 syn 20-3; type: cell-based, HSV-1; settings: for IC50: Human alphaherpesvirus 1, strain 1C3 syn 20-3, read-out: IC50; for Relative resistance (RR): IC50 of clone 1C3 syn 20-3 / IC50 of HSV-1 (F)
# Method: as §1, §2
# [6] = system: 1C3 syn 20-1; type: cell-based, HSV-1; settings: for IC50: Human alphaherpesvirus 1, strain 1C3 syn 20-1, read-out: IC50; for Relative resistance (RR): IC50 of clone 1C3 syn 20-1 / IC50 of HSV-1 (F)
# Method: as §1, §2
# [7] = system: 1C3 syn 17-2; type: cell-based, HSV-1; settings: for IC50: Human alphaherpesvirus 1, strain 1C3 syn 17-2, read-out: IC50; for Relative resistance (RR): IC50 of clone 1C3 syn 17-2 / IC50 of HSV-1 (F)
# Method: as §1, §2
# [8] = system: 1C3 syn 21-2; type: cell-based, HSV-1; settings: for IC50: Human alphaherpesvirus 1, strain 1C3 syn 21-2, read-out: IC50; for Relative resistance (RR): IC50 of clone 1C3 syn 21-2 / IC50 of HSV-1 (F)
# Method: as §1, §2
# [9] = system: 1C3 syn 21-1; type: cell-based, HSV-1; settings: for IC50: Human alphaherpesvirus 1, strain 1C3 syn 21-1, read-out: IC50; for Relative resistance (RR): IC50 of clone 1C3 syn 21-1 / IC50 of HSV-1 (F)
# Method: as §1, §2
# [10] = system: 1C3 syn 21-3; type: cell-based, HSV-1; settings: for IC50: Human alphaherpesvirus 1, strain 1C3 syn 21-3, read-out: IC50; for Relative resistance (RR): IC50 of clone 1C3 syn 21-3 / IC50 of HSV-1 (F)
# Method: as §1, §2
# [11] = system: 1C3 syn 17-3; type: cell-based, HSV-1; settings: for IC50: Human alphaherpesvirus 1, strain 1C3 syn 17-3, read-out: IC50; for Relative resistance (RR): IC50 of clone 1C3 syn 17-3 / IC50 of HSV-1 (F)
# Method: as §1, §2
# [12] = system: 1C3 syn 17-1; type: cell-based, HSV-1; settings: for IC50: Human alphaherpesvirus 1, strain 1C3 syn 17-1, read-out: IC50; for Relative resistance (RR): IC50 of clone 1C3 syn 17-1 / IC50 of HSV-1 (F)
# Method: as §1, §2
Compound,IC50 [1] [µg/mL],Relative resistance (RR) [1],IC50 [2] [µg/mL],Relative resistance (RR) [2],IC50 [3] [µg/mL],IC50 [4] [µg/mL],Relative resistance (RR) [4],IC50 [5] [µg/mL],Relative resistance (RR) [5],IC50 [6] [µg/mL],Relative resistance (RR) [6],IC50 [7] [µg/mL],Relative resistance (RR) [7],IC50 [8] [µg/mL],Relative resistance (RR) [8],IC50 [9] [µg/mL],Relative resistance (RR) [9],IC50 [10] [µg/mL],Relative resistance (RR) [10],IC50 [11] [µg/mL],also measured
"O=C(O)P(=O)(O)O [Foscarnet, foscarnet]",35.1,5.0,3.12,< 1.0,6.12,12.5,2.0,17.6,2.9,12.5,2.0,12.5,2.0,17.6,2.9,8.82,1.4,12.5,2.0,17.6,Relative resistance (RR) [11]: 2.9; IC50 [12]: 17.6 µg/mL; Relative resistance (RR) [12]: 2.9
"Nc1nc2c(ncn2COCCO)c(=O)[nH]1 [Aciclovir, aciclovir]",> 0.5,10.0,0.1,2.0,0.05,0.2,4.0,0.2,4.0,0.4,8.0,0.2,4.0,0.4,8.0,0.2,4.0,0.2,4.0,0.2,susceptibility of variant to drug (in words) ([2]; variant 1C3-syn-14-1): rare resistance; Relative resistance (RR) [11]: 4.0; IC50 [12]: 0.28 µg/mL; Relative resistance (RR) [12]: 5.6
